In series [1] the test system is A2 adenosine receptor. Nature of the series: Hypotensive (A2) effect in whole animals. Type of series: in vivo.
Series [2] deals with A1 adenosine receptor (Cavia porcellus, UniProt P47745). Nature of the series: Slowing of A-V conduction (A1 effect) versus coronary vasodilation (A2 effect). Details: slowing of A--V (A1 effect) conduction; from tissue.
Chain of A1 adenosine receptor (P47745 whole entry): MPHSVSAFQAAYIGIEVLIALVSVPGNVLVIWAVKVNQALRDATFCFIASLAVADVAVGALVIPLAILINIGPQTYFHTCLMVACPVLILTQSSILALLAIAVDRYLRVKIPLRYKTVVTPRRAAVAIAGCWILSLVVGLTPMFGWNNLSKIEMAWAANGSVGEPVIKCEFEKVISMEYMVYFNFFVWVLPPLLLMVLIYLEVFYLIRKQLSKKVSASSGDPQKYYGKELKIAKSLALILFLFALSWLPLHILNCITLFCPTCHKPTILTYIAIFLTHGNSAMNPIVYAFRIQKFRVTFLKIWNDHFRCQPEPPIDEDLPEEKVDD

For `OC[C@H]1O[C@@H](n2cnc3c(N[C@H]4C[C@@H]5C[C@H]4[C@H]4O[C@@H]54)ncnc32)[C@H](O)[C@@H]1O` [N^6-(2S-endo-5,6-epoxynorborn-2-yl) adenosine], in series [1], the “hypotensive (A2) effect” value is reported as “no discernable hypotensive (A2) effect”. Moreover, in series [2], the “potency for slowing of A-V conduction (A1) over coronary vasodilation (A2)” value is “more than 100 fold”.

Values taken from patent publication US5736528A, “N^6 -(epoxynorborn-2-yl) adenosines as A1 adenosine receptor agonists” (priority 1995, dated 1998).
